Test results as given in US20070197590A1, “SUBSTITUTED DIPIPERIDINE CCR2 ANTAGONISTS” (priority 2006, published 2007).

target: T1, CCR2 (Homo sapiens, UniProt P41597); assay: MCP-1 Receptor Binding Assay in THP-1 Cells; conditions: THP-1 cells, 0.5 nM 125I labeled MCP-1, 2 hours at 30° C.; read-out: Inhibition of MCP-1 Binding IC50
T1 construct: host or cells: THP-1 cells
T1 sequence (P41597 1-360 isoform P41597-2): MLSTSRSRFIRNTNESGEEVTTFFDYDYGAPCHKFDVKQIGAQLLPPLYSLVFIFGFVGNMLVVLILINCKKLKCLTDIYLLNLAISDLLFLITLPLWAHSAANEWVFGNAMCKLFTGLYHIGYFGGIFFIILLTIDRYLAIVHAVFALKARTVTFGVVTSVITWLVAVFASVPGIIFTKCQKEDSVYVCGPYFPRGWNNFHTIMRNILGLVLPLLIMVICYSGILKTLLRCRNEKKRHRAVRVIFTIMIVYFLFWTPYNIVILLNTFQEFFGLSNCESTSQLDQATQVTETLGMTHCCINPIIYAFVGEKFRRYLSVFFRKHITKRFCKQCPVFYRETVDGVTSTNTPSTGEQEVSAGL
Procedure: THP-1 cells were obtained from American Type Culture Collection (Manassas, Va., USA). The THP-1 cells were grown in RPMI-1640 supplemented with 10% fetal bovine serum in a humidified 5% CO2 atmosphere at 37° C. The cell density was maintained […].
THP-1 cells were incubated with 0.5 nM ^125, labeled MCP-1 (Perkin-Elmer Life Sciences, Inc. Boston, Mass.) in the presence of varying concentrations of either unlabeled MCP-1 (R & D Systems, Minneapolis, Minn.) or test compound for 2 hours at 30° C. in a 96 well plate. Cells were then harvested onto a filter plate, dried, and 20 μL of Microscint 20 was added to each well. Plates were counted in a TopCount NXT, Microplate Scintillation & Luminescence Counter (Perkin-Elmer Life Sciences, Inc. Boston, Mass.). Blank values (buffer only) were subtracted from all values and drug treated values were compared to vehicle treated values. 1 μM cold MCP-1 was used for nonspecific binding.
Table 1 lists IC50 values for inhibition of MCP-1 binding to CCR2 obtained for test compounds of the invention.

| IC50 [µM] | SMILES |
| --- | --- |
| 1 | O=C(Nc1ccc(Cl)c(Cl)c1)N1CCC(O)(C(O)CN2CCC(c3ccc(C(F)(F)F)cc3)CC2)CC1 (centres unmarked) [Compound 143, 4-hydroxy-4-{1-hydroxy-2-[4-(4-trifluoromethyl-phenyl)-piperidin-1-yl]-ethyl}-piperidine-1-carboxylic acid (3,4-dichloro-phenyl)-amide] |
| 3.4 | OC(CN1CCC(c2ccc(C(F)(F)F)cc2)CC1)C1(O)CCN(C(=S)Nc2ccc(Cl)c(Cl)c2)CC1 (centres unmarked) [Compound 144, 4-hydroxy-4-{1-hydroxy-2-[4-(4-trifluoromethyl-phenyl)-piperidin-1-yl]-ethyl}-piperidine-1-carbothioic acid (3,4-dichloro-phenyl)-amide] |
| 1.9 | OC(CN1CCC(c2ccc(C(F)(F)F)cc2)CC1)C1(O)CCN(C(=S)Nc2cc(Cl)cc(Cl)c2)CC1 (centres unmarked) [Compound 145, 4-hydroxy-4-{1-hydroxy-2-[4-(4-trifluoromethyl-phenyl)-piperidin-1-yl]-ethyl}-piperidine-1-carbothioic acid (3,5-dichloro-phenyl)-amide] |
| 3 | Nc1ccc2[nH]cc(C3CCN(CC(O)C4CCN(C(=O)OCc5ccccc5)CC4)CC3)c2c1 (centres unmarked) [Compound 147, 4-{2-[4-(5-amino-1H-indol-3-yl)-piperidin-1-yl]-1-hydroxy-ethyl}-piperidine-1-carboxylic acid benzyl ester] |
| 1.1 | O=C(/C=C/c1cc(F)c(F)c(F)c1)N1CCC(O)(C(O)CN2CCC(c3c[nH]c4ccc(N5CCOCC5)cc34)CC2)CC1 (centres unmarked) [Compound 148] |
| 1.3 | O=C(/C=C/c1cc(F)cc(F)c1)N1CCC(O)(C(O)CN2CCC(c3c[nH]c4ccc(N5CCOCC5)cc34)CC2)CC1 (centres unmarked) [Compound 149] |
| 8.7 | O=C(/C=C/c1cc(C(F)(F)F)cc(C(F)(F)F)c1)N1CCC(O)(C(O)CN2CCC(c3c[nH]c4ccc(N5CCOCC5)cc34)CC2)CC1 (centres unmarked) [Compound 150] |
| 1.8 | O=C(/C=C/c1cc(F)cc(F)c1)N1CCC(O)(C(O)CN2CCC(O)(c3ccc(F)cc3)CC2)CC1 (centres unmarked) [Compound 154] |
| 8.3 | O=C(Nc1cc(F)ccc1Cl)N1CCC(O)(C(O)CN2CCC(c3c[nH]c4ccc(F)cc34)CC2)CC1 (centres unmarked) [Compound 161] |
| 8.1 | OC(CN1CCC(c2c[nH]c3ccc(F)cc23)CC1)C1(O)CCN(C(=S)Nc2ccc(Cl)c(Cl)c2)CC1 (centres unmarked) [Compound 162] |
| 3.1 | OC(CN1CCC(c2ccc(Cl)cc2)CC1)C1(O)CCN(C(=S)Nc2cc(F)cc(F)c2F)CC1 (centres unmarked) [Compound 166, 4-{2-[4-(4-chloro-phenyl)-piperidin-1-yl]-1-hydroxy-ethyl}-4-hydroxy-piperidine-1-carbothioic acid (2,3,5-trifluoro-phenyl)-amide] |

Further lines, the molecule ahead of its results:

| SMILES | IC50 [µM] |
| --- | --- |
| COc1ccc(C2CCN(CC(O)C3CCN(C(=S)Nc4cccc(C#N)c4)CC3)CC2)cc1 (centres unmarked) [Compound 104, 4-{1-hydroxy-2-[4-(4-methoxy-phenyl)-piperidin-1-yl]-ethyl}-piperidine-1-carbothioic acid (3-cyano-phenyl)-amide] | 2.7 |
| COc1ccc(C2CCN(CC(O)C3CCN(C(=S)Nc4cc(F)cc(F)c4F)CC3)CC2)cc1 (centres unmarked) [Compound 109, 4-{1-hydroxy-2-[4-(4-methoxy-phenyl)-piperidin-1-yl]-ethyl}-piperidine-1-carbothioic acid (2,3,5-trifluoro-phenyl)-amide] | 4.2 |
| COc1ccc(C2CCN(CC(O)C3CCN(C(=S)Nc4cc(OC)cc(OC)c4)CC3)CC2)cc1 (centres unmarked) [Compound 111, 4-{1-hydroxy-2-[4-(4-methoxy-phenyl)-piperidin-1-yl]-ethyl}-piperidine-1-carbothioic acid (3,5-dimethoxy-phenyl)-amide] | 2.6 |
| O=C(OCc1ccccc1)N1CCC(O)(C(O)CN2CCC(c3ccc(Cl)cc3)CC2)CC1 (centres unmarked) [Compound 112, 4-{2-[4-(4-chloro-phenyl)-piperidin-1-yl]-1-hydroxy-ethyl}-4-hydroxy-piperidine-1-carboxylic acid benzyl ester] | 3.7 |
| O=C(Nc1cc(F)cc(F)c1)N1CCC(O)(C(O)CN2CCC(c3ccc(F)cc3)CC2)CC1 (centres unmarked) [Compound 133, 4-{2-[4-(4-fluoro-phenyl)-piperidin-1-yl]-1-hydroxy-ethyl}-4-hydroxy-piperidine-1-carboxylic acid (3,5-difluoro-phenyl)-amide] | 3 |
| COc1ccc(/C=C/C(=O)N2CCC(O)(C(O)CN3CCC(c4ccc(C(F)(F)F)cc4)CC3)CC2)cc1OC (centres unmarked) [Compound 140] | 15.4 |
| O=C(Nc1ccc(F)c(F)c1)N1CCC(O)(C(O)CN2CCC(c3ccc(C(F)(F)F)cc3)CC2)CC1 (centres unmarked) [Compound 141, 4-hydroxy-4-{1-hydroxy-2-[4-(4-trifluoromethyl-phenyl)-piperidin-1-yl]-ethyl}-piperidine-1-carboxylic acid (3,4-difluoro-phenyl)-amide] | 2.8 |

same assay, conditions: test concentration of 25 μM; given where an IC50 value was not obtained; read-out: Inhibition of MCP-1 Binding, percent inhibition

| inhibition at 25 µM [%] | SMILES |
| --- | --- |
| 50 | COc1ccc(C2CCN(CC(O)C3CCN(C(=O)Nc4ccc5c(c4)OCO5)CC3)CC2)cc1 (centres unmarked) [Compound 100, 4-{1-hydroxy-2-[4-(4-methoxy-phenyl)-piperidin-1-yl]-ethyl}-piperidine-1-carboxylic acid benzo[1,3]dioxol-5-ylamide] |
| 51 | COc1ccc(C2CCN(CC(O)C3CCN(C(=O)Nc4ccc(C(F)(F)F)cc4Cl)CC3)CC2)cc1 (centres unmarked) [Compound 101, 4-{1-hydroxy-2-[4-(4-methoxy-phenyl)-piperidin-1-yl]-ethyl}-piperidine-1-carboxylic acid (2-chloro-4-trifluoromethyl-phenyl)-amide] |
| 43 | COc1ccc(C2CCN(CC(O)C3(O)CCN(C(=S)Nc4cc(OC)cc(OC)c4)CC3)CC2)cc1 (centres unmarked) [Compound 119, 4-hydroxy-4-{1-hydroxy-2-[4-(4-methoxy-phenyl)-piperidin-1-yl]-ethyl}-piperidine-1-carbothioic acid (3,5-dimethoxy-phenyl)-amide] |
| 51 | OC(CN1CCC(c2c[nH]c3ccc(N4CCOCC4)cc23)CC1)C1(O)CCN(c2nccc(C(F)(F)F)n2)CC1 (centres unmarked) [Compound 122, 4-{1-hydroxy-2-[4-(5-morpholin-4-yl-1H-indol-3-yl)-piperidin-1-yl]-ethyl}-1-(4-trifluoromethyl-pyrimidin-2-yl)-piperidin-4-ol] |
| 51 | O=C(OCc1ccccc1)N1CCC(O)(C(O)CN2CCC(c3ccc(F)cc3)CC2)CC1 (centres unmarked) [Compound 125, 4-{2-[4-(4-fluoro-phenyl)-piperidin-1-yl]-1-hydroxy-ethyl}-4-hydroxy-piperidine-1-carboxylic acid benzyl ester] |
| 55 | O=C(OCc1ccccc1)N1CCC(O)(C(O)CN2CCC(c3ccc(C(F)(F)F)cc3)CC2)CC1 (centres unmarked) [Compound 126, 4-hydroxy-4-{1-hydroxy-2-[4-(4-trifluoromethyl-phenyl)-piperidin-1-yl]-ethyl}-piperidine-1-carboxylic acid benzyl ester] |
| 59 | COc1ccc(C2CCN(CC(O)C3CCN(c4ccc([N+](=O)[O-])cn4)CC3)CC2)cc1 (centres unmarked) [Compound 127, 2-[4-(4-methoxy-phenyl)-piperidin-1-yl]-1-(5′-nitro-3,4,5,6-tetrahydro-2H-[1,2′]bipyridinyl-4-yl)-ethanol] |
| 41 | CC(C)(C)OC(=O)N1CCC(O)(C(O)CN2CCC(c3ccc(Cl)cc3)CC2)CC1 (centres unmarked) [Compound 146, 4-{2-[4-(4-chloro-phenyl)-piperidin-1-yl]-1-hydroxy-ethyl}-4-hydroxy-piperidine-1-carboxylic acid tert-butyl ester] |
